Source: patent publication US11541057B2, “Thienopyrimidinone NMDA receptor modulators and uses thereof” (Cadent Therapeutics, Inc., priority 2015, dated 2023)

The compounds below were run against T1, NMDA receptor GRIN1/GRIN2B (NR2B) expressed in HEK293 cells (Homo sapiens, UniProt Q13224) (assay: Reversal of Ro 25-6981-mediated suppression of the Ca2+ response (fluo-8 fluorescence, FDSS) in HEK293 cells expressing GRIN1 and GRIN2B). Conditions: % reversal=100*(R−Rneg)/(Rpos−Rneg) of Ro 25-6981 suppression of co-agonist (glutamate/glycine) Ca2+ response, 10 min pre-incubation, compound concentration not given.
T1 construct: host or cells: HEK293
T1 sequence (Q13224 27-1484, other chains not shown): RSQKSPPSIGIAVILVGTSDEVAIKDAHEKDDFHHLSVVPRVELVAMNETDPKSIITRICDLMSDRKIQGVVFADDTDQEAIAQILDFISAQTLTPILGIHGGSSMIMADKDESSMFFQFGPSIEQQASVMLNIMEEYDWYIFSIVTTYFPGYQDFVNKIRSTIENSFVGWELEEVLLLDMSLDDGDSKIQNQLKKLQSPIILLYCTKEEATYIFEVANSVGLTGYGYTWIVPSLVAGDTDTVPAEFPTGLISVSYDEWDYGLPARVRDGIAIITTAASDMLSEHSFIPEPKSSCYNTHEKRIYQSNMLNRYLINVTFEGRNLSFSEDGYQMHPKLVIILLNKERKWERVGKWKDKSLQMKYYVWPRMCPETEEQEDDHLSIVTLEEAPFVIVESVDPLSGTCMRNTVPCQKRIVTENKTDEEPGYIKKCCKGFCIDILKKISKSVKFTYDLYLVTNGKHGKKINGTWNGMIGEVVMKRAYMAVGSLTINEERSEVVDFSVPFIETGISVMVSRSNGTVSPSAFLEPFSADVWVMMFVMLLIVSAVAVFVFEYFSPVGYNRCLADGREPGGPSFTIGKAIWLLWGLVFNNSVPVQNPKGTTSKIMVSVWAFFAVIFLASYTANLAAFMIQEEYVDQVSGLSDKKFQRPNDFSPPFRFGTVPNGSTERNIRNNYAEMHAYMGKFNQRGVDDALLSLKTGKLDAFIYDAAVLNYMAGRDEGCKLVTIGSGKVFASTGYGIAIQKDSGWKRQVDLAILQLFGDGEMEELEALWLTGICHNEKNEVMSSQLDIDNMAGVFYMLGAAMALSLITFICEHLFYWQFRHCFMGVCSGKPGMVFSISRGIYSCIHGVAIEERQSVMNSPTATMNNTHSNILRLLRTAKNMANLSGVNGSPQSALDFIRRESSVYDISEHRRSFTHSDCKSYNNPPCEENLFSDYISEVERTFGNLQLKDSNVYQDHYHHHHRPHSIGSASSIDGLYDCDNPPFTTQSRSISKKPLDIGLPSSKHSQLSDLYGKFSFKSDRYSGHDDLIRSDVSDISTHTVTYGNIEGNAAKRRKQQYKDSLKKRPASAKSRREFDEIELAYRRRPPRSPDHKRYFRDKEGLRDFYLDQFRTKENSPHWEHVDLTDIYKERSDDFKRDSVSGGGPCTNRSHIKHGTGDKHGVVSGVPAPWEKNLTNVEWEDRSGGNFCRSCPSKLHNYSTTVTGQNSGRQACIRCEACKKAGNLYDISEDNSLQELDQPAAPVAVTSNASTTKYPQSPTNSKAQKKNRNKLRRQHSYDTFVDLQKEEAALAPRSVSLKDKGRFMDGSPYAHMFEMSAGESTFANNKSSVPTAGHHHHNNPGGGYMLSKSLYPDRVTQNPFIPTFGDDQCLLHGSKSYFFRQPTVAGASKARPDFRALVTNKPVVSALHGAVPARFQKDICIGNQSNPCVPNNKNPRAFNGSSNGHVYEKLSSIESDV
Assay type: cell-based
Procedure: HEK293 cells with constructs conferring stable expression of the GRIN1 gene and tetracycline-inducible expression of the GRIN2B gene (Chantest, Cleveland, Ohio) are grown to ˜75% confluence in tissue culture flasks at 37° C., 5% CO2. NR2B expression is induced by overnight incubation with 0.3-0.4 μg/ml tetracycline in the presence of 2.5 mM ARL-15896 at 37° C., followed by moving to 30° C. for 3-5 hours. Cells are next harvested using TripleExpress™ (Life Technologies, Carlsbad, Calif.) according to the manufacturer's instructions, first removing culture medium, rinsing with Dulbecco's phosphate buffered saline (Ca^2+ and Mg^2+-free), and then adding the TripleExpress™ reagent. Harvested cells are spun down, washed twice in Ca^2+- and Mg^2+-free Hank's Balanced Salt Solution with 20 mM HEPES and 10 mM glucose, pH 7.4 (HHnoCa solution), and counted with viability assessed using Trypan Blue. Cells are loaded with fluo-8 Ca^2+-sensitive dye in HHnoCa solution according to the manufacturer's directions (AAT Bioquest, Sunnyvale, Calif.), incubating at 37° C. for 20 minutes followed by 25 minutes at 22-25° C. After a wash in HHnoCa to remove extracellular dye, cells are resuspended in HHnoCa and plated at […] cells per well in a volume of 25 μl/well in 384 well black-wall, clear bottom plates (Hamamatsu, Middlesex, N.J.). Plates are then centrifuged to create a monolayer in the wells and stored in the dark until used.
Prior to analysis, compound plates are prepared with each compound at 6× the final desired concentration. From stock solutions at 10 mM in 100% DMSO, compounds are spotted in the desired amounts using an ECHO liquid handler (Labcyte, Sunnyvale, Calif.) into wells of a 384-well plate and then diluted with 50 μl of HHnoCa containing 750 nM Ro 25-6981 and 120 μM 5,7-dichlorokynurenic acid (both purchased from Tocris Bioscience (Bristol, England) and maintained as 10 mM stock solutions in 100% DMSO). To insure complete compound dissolution, these plates are then placed in an orbital shaker for at least one hour. Also prepared prior to the assay is a co-agonist plate containing HHnoCa with 240 μM glutamate, 2.4 mM glycine, and 7.2 mM CaCl2, which is 2.4× the desired final concentration of each reagent. Both the compound plate and co-agonist plate are 384-well polypropylene plates from Thermo Fisher Scientific, Waltham, Mass.
The assay is performed by first adding 10 μl solution from each well of the compound plate described above to the cell plate using a CyBiWell liquid handler (Analytik Jena AG, Jena, Germany), followed by 10 minutes pre-incubation in the dark. Cell plates are then loaded onto a Hamamatsu FDSS 6000 plate reader. After a 30-second baseline, 25 μl is added to each well from the co-agonist plate, and the fluorescence signal is recorded for another 2 minutes. FDSS software applies shading and autofluorescence correction, and resultant raw fluorescence measurements are exported in the form of a fluorescence ratio for each well to its own reading at time zero in the experiment. In each plate, negative control wells consist of wells where Ro 25-6981 and 5,7 dichlorokynurenic acid are present and co-agonist is applied in the absence of any added assay compound. Under these conditions, the Ca^2+ response to co-agonist is suppressed. Positive control wells also present in each plate contain 5,7 dichlorokynurenic acid but no Ro 25-6981, so that co-agonist addition results in a large Ca^2+ response. Compounds tested are evaluated on the basis of their ability to reverse the suppression of the Ca^2+ response mediated by Ro 25-6981, which is quantified as % reversal=100*(R−Rneg)/(Rpos−Rneg) where R is the fluorescence ratio for the test compound at the end of the experiment and Rneg and Rpos are the end ratios for the negative and positive controls, respectively. […]
For `O=C(Cn1cnc2scc(-c3ccc(Cl)cc3)c2c1=O)N1CCC(O)CC1` [Example 1, 5-(4-chlorophenyl)-3-(2-(4-hydroxypiperidin-1-yl)-2-oxoethyl)thieno[2,3-d]pyrimidin-4(3H)-one], the “Response Recovered (%)” value was 0%.
`O=C(Cn1cnc2scc(-c3ccc(Cl)cc3)c2c1=O)N1CCC(F)CC1` [Example 2, 5-(4-chlorophenyl)-3-[2-(4-fluoropiperidin-1-yl)-2-oxoethyl]-3H,4H-thieno[2,3-d]pyrimidin-4-one] was tested, and the “Response Recovered (%)” value was 25%.
In the case of `CN1CCN(C(=O)Cn2cnc3scc(-c4ccc(Cl)cc4)c3c2=O)CC1` [Example 3, 5-(4-chlorophenyl)-3-[2-(4-methylpiperazin-1-yl)-2-oxoethyl]-3H,4H-thieno└2,3-d┘pyrimidin-4-one], the “Response Recovered (%)” value is reported as 3%.
For `O=C(Cn1cnc2scc(-c3ccc(Cl)cc3)c2c1=O)N1CCOCC1` [Example 4, 5-(4-chlorophenyl)-3-[2-(morpholin-4-yl)-2-oxoethyl]-3H,4H-thieno└2,3-d┘pyrimidin-4-one], the “Response Recovered (%)” value was 3%.
With `O=C(Cn1cnc2scc(-c3ccc(Cl)cc3)c2c1=O)NC1CC1` [Example 5, 2-[5-(4-chlorophenyl)-4-oxo-3H,4H-thieno[2,3-d]pyrimidin-3-yl]-N-cyclopropylacetamide] the “Response Recovered (%)” value was 2%.
`O=C(Cn1cnc2scc(-c3ccc(Cl)cc3)c2c1=O)N1CCC(O)C1` (stereo not drawn) [Example 6, 5-(4-chlorophenyl)-3-[2-(3-hydroxypyrrolidin-1-yl)-2-oxoethyl]-3H,4H-thieno[2,3-d]pyrimidin-4-one] was tested, and the “Response Recovered (%)” value was 3%.
With `CN1CCC(NC(=O)Cn2cnc3scc(-c4ccc(Cl)cc4)c3c2=O)C1` (stereo not drawn) [Example 7, 2-[5-(4-chlorophenyl)-4-oxo-3H,4H-thieno[2,3-d]pyrimidin-3-yl]-N-(1-methylpyrrolidin-3-yl)acetamide] the “Response Recovered (%)” value was 3%.
With `O=C(Cn1cnc2scc(-c3ccc(Cl)cc3)c2c1=O)N1CCCCC1` [Example 8, 5-(4-chlorophenyl)-3-[2-oxo-2-(piperidin-1-yl)ethyl]-3H,4H-thieno[2,3-d]pyrimidin-4-one] the “Response Recovered (%)” value was 3%.
For `O=C(Cn1cnc2scc(-c3ccc(Cl)cc3)c2c1=O)NC1CCC1` [Example 9, 2-[5-(4-chlorophenyl)-4-oxo-3H,4H-thieno[2,3-d]pyrimidin-3-yl]-N-cyclobutylacetamide], the “Response Recovered (%)” value was 3%.
With `C[C@H]1CCCN1C(=O)Cn1cnc2scc(-c3ccc(Cl)cc3)c2c1=O` [Example 10, 5-(4-chlorophenyl)-3-{2-[(2S)-2-methylpyrrolidin-1-yl]-2-oxoethyl}-3H,4H-thieno[2,3-d]pyrimidin-4-one] the “Response Recovered (%)” value was 2%.
For `O=C(Cn1cnc2scc(-c3ccc(Cl)cc3)c2c1=O)N1CCCC1C(F)(F)F` (stereo not drawn) [Example 11, 5-(4-chlorophenyl)-3-{2-oxo-2-[2-(trifluoromethyl)pyrrolidin-1-yl]ethyl}-3H,4H-thieno[2,3-d]pyrimidin-4-one], the “Response Recovered (%)” value was 8%.
`CC1CCCC(C)N1C(=O)Cn1cnc2scc(-c3ccc(Cl)cc3)c2c1=O` (stereo not drawn) [Example 12, 5-(4-chlorophenyl)-3-[2-(2,6-dimethylpiperidin-1-yl)-2-oxoethyl]-3H,4H-thieno[2,3-d]pyrimidin-4-one] was tested, and the “Response Recovered (%)” value was −1%.
With `CCN(CC)C(=O)Cn1cnc2scc(-c3ccc(Cl)cc3)c2c1=O` [Example 13, 2-[5-(4-chlorophenyl)-4-oxo-3H,4H-thieno[2,3-d]pyrimidin-3-yl]-N,N-diethylacetamide] the “Response Recovered (%)” value was 5%.
In the case of `O=C(Cn1cnc2scc(-c3ccc(Cl)cc3)c2c1=O)N1CCC(F)(F)CC1` [Example 14, 5-(4-chlorophenyl)-3-[2-(4,4-difluoropiperidin-1-yl)-2-oxoethyl]-3H,4H-thieno└2,3-d┘pyrimidin-4-one], the “Response Recovered (%)” value is reported as 2%.
For `O=C(Cn1cnc2scc(-c3ccc(Cl)cc3)c2c1=O)N1CCC(O)(c2ccccc2)CC1` [Example 15, 5-(4-chlorophenyl)-3-[2-(4-hydroxy-4-phenylpiperidin-1-yl)-2-oxoethyl]-3H,4H-thieno[2,3-d]pyrimidin-4-one], the “Response Recovered (%)” value was −1%.
In the case of `O=C(Cn1cnc2scc(-c3ccc(Cl)cc3)c2c1=O)N1CCC(F)C1` (stereo not drawn) [Example 16, 5-(4-chlorophenyl)-3-[2-(3-fluoropyrrolidin-1-yl)-2-oxoethyl]-3H,4H-thieno[2,3-d]pyrimidin-4-one], the “Response Recovered (%)” value is reported as 21%.
For `O=C(Cn1cnc2scc(-c3ccc(C(F)(F)F)cc3)c2c1=O)N1CCCC1` [Example 17, 3-[2-oxo-2-(pyrrolidin-1-yl)ethyl]-5-[4-(trifluoromethyl)phenyl]-3H,4H-thieno[2,3-d]pyrimidin-4-one], the “Response Recovered (%)” value was 11%.
For `O=C(Cn1cnc2scc(-c3ccc(C(F)(F)F)cc3)c2c1=O)N1CCCC1C(F)(F)F` (stereo not drawn) [Example 18, 3-{2-oxo-2-[2-(trifluoromethyl)pyrrolidin-1-yl]ethyl}-5-[4-(trifluoromethyl)phenyl]-3H,4H-thieno[2,3-d]pyrimidin-4-one], the “Response Recovered (%)” value was 8%.
In the case of `O=C(Cn1cnc2scc(-c3ccc(Cl)c(C(F)(F)F)c3)c2c1=O)N1CCC(F)C1` (stereo not drawn) [Example 19, 5-[4-chloro-3-(trifluoromethyl)phenyl]-3-[2-(3-fluoropyrrolidin-1-yl)-2-oxoethyl]-3H,4H-thieno[2,3-d]pyrimidin-4-one], the “Response Recovered (%)” value is reported as 93%.
`O=C(Cn1cnc2scc(-c3ccc(Cl)c(C(F)(F)F)c3)c2c1=O)N1CCCC1` [Example 20, 5-(4-chloro-3-(trifluoromethyl)phenyl)-3-(2-oxo-2-(pyrrolidin-1-yl)ethyl)thieno[2,3-d]pyrimidin-4(3H)-one] was tested, and the “Response Recovered (%)” value was 76%.
In the case of `O=C(Cn1cnc2scc(-c3ccc(Cl)c(F)c3)c2c1=O)N1CCCC1` [Example 21, 5-(4-chloro-3-fluorophenyl)-3-(2-oxo-2-(pyrrolidin-1-yl)ethyl)thieno[2,3-d]pyrimidin-4(3H)-one], the “Response Recovered (%)” value is reported as 19%.
In the case of `O=C(Cn1cnc2scc(-c3ccc(F)cc3)c2c1=O)N1CCCCC1` [Example 24, 5-(4-fluorophenyl)-3-[2-oxo-2-(piperidin-1-yl)ethyl]-3H,4H-thieno[2,3-d]pyrimidin-4-one], the “Response Recovered (%)” value is reported as 4%.
For `O=C(Cn1cnc2scc(-c3ccc(C(F)(F)F)cc3)c2c1=O)N1CCCCC1` [Example 26, 3-[2-oxo-2-(piperidin-1-yl)ethyl]-5-[4-(trifluoromethyl)phenyl]-3H,4H-thieno[2,3-d]pyrimidin-4-one], the “Response Recovered (%)” value was 1%.
`O=C(Cn1cnc2scc(-c3ccc(F)cc3)c2c1=O)N1CCCC1C(F)(F)F` (stereo not drawn) [Example 27] was tested, and the “Response Recovered (%)” value was 7%.
With `Cc1ccc(-c2csc3ncn(CC(=O)N4CCCC4C(F)(F)F)c(=O)c23)cc1` (stereo not drawn) [Example 28, 5-(4-methylphenyl)-3-{2-oxo-2-[2-(trifluoromethyl)pyrrolidin-1-yl]ethyl}-3H,4H-thieno[2,3-d]pyrimidin-4-one] the “Response Recovered (%)” value was 6%.
`O=C(Cn1cnc2scc(-c3ccc(F)c(Cl)c3)c2c1=O)N1CCCC1` [Example 30, 5-(3-chloro-4-fluorophenyl)-3-[2-oxo-2-(pyrrolidin-1-yl)ethyl]-3H,4H-thieno└2,3-d┘pyrimidin-4-one] was tested, and the “Response Recovered (%)” value was 41%.
For `O=C(Cn1cnc2scc(-c3cccc(F)c3)c2c1=O)N1CCCC1` [Example 31, 5-(3-fluorophenyl)-3-[2-oxo-2-(pyrrolidin-1-yl)ethyl]-3H,4H-thieno└2,3-d┘pyrimidin-4-one], the “Response Recovered (%)” value was 3%.
